Data as given in PubChem BioAssay AID2060895 (Molecular Pharmacology Branch, DTP, NCI, 2025).

Tested on: PDC 899932-113-R3-J6 complex spheroid viability
Experiment: Anticancer human tumor 899932-113-R3-J6-PDC patient-derived melanoma cell line growth inhibition [RAS]
Settings: for IC50: curve of first compound; for viability, T/C: stronger effect = lower value; active = viability on the fitted dose curve at most 10% of control; inactive = the rest
From the text: RAS pathway inhibitors in Combinations in Complex Spheroids
A high-throughput screen of multi-cell type tumor spheroids was designed to identify active combinations of RAS pathway inhibitors and targeted small molecules. Complex spheroids include a stromal component modeled by human endothelial cells (HUVEC) and fibroblasts modeled by human mesenchymal stem cells (MSCs). The concentration ranges selected for each drug and investigational agent were based upon clinically achievable concentrations if the clinical Cmax of the agent was known.
Compounds. The drugs and investigational agents: abemaciclib (NSC768073), cobimetinib (NSC768068), divarasib (GDC6063, NSC841802), docetaxel (NSC628503), GDC-1971 (RLY-1971, NSC841576), gemcitabine (NSC613327), inavolisib (NSC800729), ipatasertib (NSC767898), KB-0742 (NSC834161), MRTX-1133 (NSC836407), osimertinib (NSC779217), RMC-4630 (NSC839698), RMC-6236 (NSC851965), RMC-6291 (NSC852671), Ro-3306 (NSC812927), sapanisertib (NSC764658), SN-38 (NSC673596), staurosporine (NSC755774), SY5609 (NSC837396), and tovorafenib (DAY101, NSC766906), were obtained from the National Cancer Institute (NCI) Developmental Therapeutics Program Chemical Repository. The FDA-approved anticancer drug set is available from the NCI Developmental Therapeutics Program. […] The stock solutions were prepared in dimethyl sulfoxide (DMSO, Sigma-Aldrich, St. Louis, MO, cat. D2650) at 800-fold the tested concentration and stored at -70 degrees C prior to their use. All drugs and investigational agents were tested over a range starting from a high concentration at or near the clinical Cmax and decreasing in half-log increments. If the clinical Cmax for an agent had not been determined, the highest concentration tested was 10 microM.
Cell Culture. All cells were maintained in an incubator at 37 degrees C and 5% CO2 with 95% humidity. The PDC lines were cultured according to standard operating procedures established by the NCI PDMR. All PDCs were thawed and cultured in Matrigel-coated flasks prepared with a working solution of 1X Ham's F-12 nutrient mix, without supplementation (Invitrogen, Waltham, MA, cat. 11765054), 100 U/mL penicillin-streptomycin (Invitrogen, cat. 15140122), and 2.5% Matrigel (Corning Inc., Corning, NY, cat. 354248) for the first three passages. The 362531-283-R-J2-PDC and 782815-120-R-J1-PDC lines were cultured in 6C/Colon 1B media, which includes advanced DMEM/F-12 (Thermo Fisher Scientific, cat. 12634028), 10 mM HEPES (Thermo Fisher Scientific, cat. 15630080), 1X GlutaMAX supplement (Thermo Fisher Scientific, cat. 35050061), 0.1 mg/mL primocin (InvivoGen, San Diego, CA, cat. ant-pm-2), 10% defined fetal bovine serum, heat inactivated (HyClone Laboratories Inc., Logan, UT, cat. SH30070.03HI), 50% L-WRN conditioned media (ATCC, cat. CRL-3276), 1.25 mM N-Acetyl-L-cysteine (Sigma-Aldrich, cat. A9165), 10 mM nicotinamide (Sigma-Aldrich, cat. N0636), 1X B-27 supplement (Thermo Fisher Scientific, cat. 17504044), 1X N-2 supplement (Thermo Fisher Scientific, cat. 17502048), 50 ng/mL human EGF (Thermo Fisher Scientific, cat. PHG0311), and 10 microM Y-27632 dihydrochloride (Tocris Bioscience, cat. 1254). The K12877-001-R-J1-PDC line was cultured in 6I media, which includes all 6C/Colon 1B media plus 10 ng/mL human FGF-10 (PeproTech, cat. 100-26), 1 ng/mL human FGF-2 (PeproTech, cat. 100-18B), 1 µM prostaglandin E2 (Tocris Bioscience, cat. 2296), […] hydrocortisone (Sigma-Aldrich, cat. H4001), and […] bovine insulin (Sigma-Aldrich, cat. I6634). The K86415-001-R-J1-PDC line was cultured in 6D media, which includes all 6C/Colon 1B media components minus the L-WRN conditioned media. The 485176-168-R4-J1-PDC was cultured in PANC media, which includes all 6C/Colon 1B media plus 100 ng/mL human FGF-10 (PeproTech, cat. 100-26), 500 nM SB-431542 (Selleckchem, cat. S1067), and 10 nM gastrin (Tocris Bioscience, cat. 3006). […]

[1] = second compound 0.000949 µM, first compound 0.0316 µM
[2] = second compound 0.000949 µM, first compound 0.1 µM
[3] = second compound 0.000949 µM, first compound 0.316 µM
[4] = second compound 0.000949 µM, first compound 1 µM
[5] = second compound 0.000949 µM, first compound 3.16 µM
[6] = second compound 0.000949 µM, first compound 10 µM
[7] = second compound 0.003 µM, first compound 0.0316 µM
[8] = second compound 0.003 µM, first compound 0.1 µM
[9] = second compound 0.003 µM, first compound 0.316 µM
[10] = second compound 0.003 µM, first compound 1 µM
[11] = second compound 0.003 µM, first compound 3.16 µM
[12] = second compound 0.003 µM, first compound 10 µM
[13] = second compound 0.00949 µM, first compound 0.0316 µM
[14] = second compound 0.00949 µM, first compound 0.1 µM
[15] = second compound 0.00949 µM, first compound 0.316 µM
[16] = second compound 0.00949 µM, first compound 1 µM
[17] = second compound 0.00949 µM, first compound 3.16 µM
[18] = second compound 0.00949 µM, first compound 10 µM
[19] = second compound 0.03 µM, first compound 0.0316 µM
[20] = second compound 0.03 µM, first compound 0.1 µM
[21] = second compound 0.03 µM, first compound 0.316 µM
[22] = second compound 0.03 µM, first compound 1 µM
[23] = second compound 0.03 µM, first compound 3.16 µM
[24] = second compound 0.03 µM, first compound 10 µM
[25] = second compound 0.0949 µM, first compound 0.0316 µM
[26] = second compound 0.0949 µM, first compound 0.1 µM
[27] = second compound 0.0949 µM, first compound 0.316 µM
[28] = second compound 0.0949 µM, first compound 1 µM
[29] = second compound 0.0949 µM, first compound 3.16 µM
[30] = second compound 0.0949 µM, first compound 10 µM
[31] = second compound 0.3 µM, first compound 0.0316 µM
[32] = second compound 0.3 µM, first compound 0.1 µM
[33] = second compound 0.3 µM, first compound 0.316 µM
[34] = second compound 0.3 µM, first compound 1 µM
[35] = second compound 0.3 µM, first compound 3.16 µM
[36] = second compound 0.3 µM, first compound 10 µM
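For viability, T/C in this document: spheroids exposed to agents for seven days before readout; 100% = DMSO vehicle control wells.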

Cc1nc(N2CCC3(CC2)COC(C)C3N)c(CO)nc1Sc1ccnc(N)c1Cl (centres undefined) + CCn1c(-c2cccnc2C(C)OC)c2c3cc(ccc31)N1CCOC(CC(NC(=O)C(C(C)C)N(C)C(=O)C3(F)CCN(C(=O)C#CC(C)(C)N(C)C)CC3)C(=O)N3CCCC(N3)C(=O)OCC(C)(C)C2)C1
> 10000 nM: IC50 (second compound 0.000949 µM) | IC50 (second compound 0.003 µM) | IC50 (second compound 0.00949 µM) | IC50 (second compound 0.03 µM) | IC50 (second compound 0.0949 µM) | IC50 (second compound 0.3 µM)
inactive: viability, T/C [1] 109% | viability, T/C [2] 102% | viability, T/C [3] 108% | viability, T/C [4] 113% | viability, T/C [5] 112% | viability, T/C [6] 118% | viability, T/C [7] 102% | viability, T/C [8] 96.8% | viability, T/C [9] 107% | viability, T/C [10] 116% | viability, T/C [11] 109% | viability, T/C [12] 110% | viability, T/C [13] 93.2% | viability, T/C [14] 95.5% | viability, T/C [15] 112% | viability, T/C [16] 121% | viability, T/C [17] 114% | viability, T/C [18] 110% | viability, T/C [19] 91.7% | viability, T/C [20] 89.3% | viability, T/C [21] 108% | viability, T/C [22] 110% | viability, T/C [23] 108% | viability, T/C [24] 106% | viability, T/C [25] 91.2% | viability, T/C [26] 85.8% | viability, T/C [27] 103% | viability, T/C [28] 94.2% | viability, T/C [29] 105% | viability, T/C [30] 107% | viability, T/C [31] 82.5% | viability, T/C [32] 80.9% | viability, T/C [33] 95.6% | viability, T/C [34] 81.6% | viability, T/C [35] 94.3% | viability, T/C [36] 90.7%

CCC(CC)c1cc(NC2CCC(N)C2)n2nccc2n1 (centres undefined) + CCn1c(-c2cc(N3CCN(C)CC3)cnc2C(C)OC)c2c3cc(ccc31)-c1csc(n1)CC(NC(=O)C1CC1C)C(=O)N1CCCC(N1)C(=O)OCC(C)(C)C2
active: viability, T/C [5] 0.22% | viability, T/C [6] 0.15% | viability, T/C [11] 0.58% | viability, T/C [12] 0.66% | viability, T/C [13] 3.22% | viability, T/C [14] 4.26% | viability, T/C [15] 3.48% | viability, T/C [16] 4.75% | viability, T/C [17] 0.1% | viability, T/C [18] 0.59% | viability, T/C [19] 3.14% | viability, T/C [20] 3.12% | viability, T/C [21] 3.99% | viability, T/C [22] 2.67% | viability, T/C [23] 0.09% | viability, T/C [24] 0.83% | viability, T/C [25] 2.55% | viability, T/C [26] 2.58% | viability, T/C [27] 2.46% | viability, T/C [28] 1.27% | viability, T/C [29] 0.74% | viability, T/C [30] 0.84% | viability, T/C [31] 2.43% | viability, T/C [32] 3.04% | viability, T/C [33] 2.55% | viability, T/C [34] 1.37% | viability, T/C [35] 0.48% | viability, T/C [36] 0.89%
inactive: viability, T/C [1] 69.1% | viability, T/C [2] 73.5% | viability, T/C [3] 64.5% | viability, T/C [4] 53.2% | viability, T/C [7] 28.8% | viability, T/C [8] 28.2% | viability, T/C [9] 26.5% | viability, T/C [10] 16.3%
1070 nM: IC50 (second compound 0.000949 µM)
< 31.6 nM: IC50 (second compound 0.003 µM) | IC50 (second compound 0.00949 µM) | IC50 (second compound 0.03 µM) | IC50 (second compound 0.0949 µM) | IC50 (second compound 0.3 µM)
